Measurements published in PubChem BioAssay (NCI).
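1) Cells in 96-well plates. 2) Compound, 48 h, 5 concentrations. 3) Linear interpolation between surrounding doses. 4) Unreached endpoint = highest concentration. GI50 is the concentration that inhibits growth by half. The concentration for full growth arrest is given as TGI.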

Legend:
Assay in all cases: NCI tumour cell line growth inhibition, 48 h
SK-OV-3 ovarian = system: SK-OV-3 ovarian
SW-620 colon = system: SW-620 colon
HT29 colon = system: HT29 colon
OVCAR-4 ovarian = system: OVCAR-4 ovarian
PC-3 prostate = system: PC-3 prostate
SNB-19 CNS = system: SNB-19 CNS
UO-31 renal = system: UO-31 renal
M14 melanoma = system: M14 melanoma
DU-145 prostate = system: DU-145 prostate
MDA-N = system: MDA-N

| Compound | TGI (SK-OV-3 ovarian) | TGI (SW-620 colon) | TGI (HT29 colon) | TGI (OVCAR-4 ovarian) | TGI (PC-3 prostate) | TGI (SNB-19 CNS) | TGI (UO-31 renal) | TGI (M14 melanoma) | TGI (DU-145 prostate) | TGI (MDA-N) | GI50 (SK-OV-3 ovarian) | GI50 (SW-620 colon) | GI50 (HT29 colon) | GI50 (OVCAR-4 ovarian) | GI50 (PC-3 prostate) | GI50 (SNB-19 CNS) | GI50 (UO-31 renal) | GI50 (M14 melanoma) | GI50 (DU-145 prostate) |
| --- | --- | --- | --- | --- | --- | --- | --- | --- | --- | --- | --- | --- | --- | --- | --- | --- | --- | --- | --- |
| N/C(=N\S(=O)(=O)c1ccc(-c2ncccc2C(F)(F)F)s1)Nc1ccc(Cl)cc1 | 33.7 µM | 35.6 µM | 39.3 µM | 42.9 µM | 25.8 µM | 34.4 µM | 38.4 µM | 31.2 µM | 36.4 µM |  |  |  |  |  |  |  |  |  |  |
| C[n+]1c2ccccc2c(NC(CCCN=C(N)N)C(=O)O)c2ccccc21 (stereo not drawn) | > 100 µM | > 100 µM | > 100 µM | > 100 µM |  | > 100 µM | > 100 µM | > 100 µM |  |  |  |  |  |  |  |  |  |  |  |
| CC(=O)Nc1c(C(=N)C#N)ncn1CCO | > 100 µM | > 100 µM | > 100 µM | > 100 µM | > 100 µM | > 100 µM |  | > 100 µM | > 100 µM | > 100 µM |  |  |  |  |  |  |  |  |  |
| CCOC(=O)CCC1(CCC(=O)OCC)CCCCCCCCC(CCC(=O)OCC)(CCC(=O)OCC)C(=O)C1=O | > 100 µM | > 100 µM | > 100 µM | > 100 µM | > 100 µM | > 100 µM |  | > 100 µM | > 100 µM | > 100 µM |  |  |  |  |  |  |  |  |  |
| COc1ccc(/C(Cl)=C(\C#N)c2ccc(OC)c(OC)c2)cc1OC |  | > 100 µM | > 100 µM | > 100 µM | > 100 µM | > 100 µM | > 100 µM | > 100 µM | > 100 µM | > 100 µM |  |  |  |  |  |  |  |  |  |
| CC1(C)OP(=O)(O)C=C1Sc1ccc([N+](=O)[O-])cc1[N+](=O)[O-] | > 100 µM | > 100 µM | > 100 µM | > 100 µM | > 100 µM | > 100 µM |  | > 100 µM | > 100 µM | > 100 µM |  |  |  |  |  |  |  |  |  |
| Cc1ccc2c(c1)CC1(Cc3cccc(C)c3C1=O)C2=O (stereo not drawn) | > 100 µM | > 100 µM | > 100 µM | > 100 µM | > 100 µM |  | > 100 µM | > 100 µM | > 100 µM | > 10 µM |  |  |  |  |  |  |  |  |  |
| O=C(NCCN1CCOCC1)c1ccc(I)cc1 | > 100 µM | > 100 µM | > 100 µM | > 100 µM | > 100 µM | > 100 µM | > 100 µM | > 100 µM |  |  |  |  |  |  |  |  |  |  |  |
| O=C(N[C@@H](Cc1coc2ccccc12)B(O)O)[C@@H]1C[C@H]2CC[C@@H]1O2 | > 100 µM | > 100 µM | > 100 µM | > 100 µM | > 100 µM | > 100 µM | 11.3 µM | 82.7 µM | > 100 µM |  | 9.17 µM | 3.3 µM | 3.77 µM | 7.36 µM | 41.2 µM | 4.98 µM | 2000 nM | 3.01 µM | 7.5 µM |
| CCOP(=O)(OCC)/C(C#N)=C/c1ccc(-c2cc(C(F)(F)F)cc(C(F)(F)F)c2)o1 |  | 28.2 µM | 21.9 µM |  | 24 µM | 32 µM | 34.9 µM | 23.1 µM | 29.1 µM | 27.2 µM |  |  |  |  |  |  |  |  |  |
| COc1ccc(C2COc3c(ccc(O)c3C)C2)cc1OC (stereo not drawn) | > 200 µM | > 200 µM | > 200 µM | > 200 µM |  | > 200 µM | 178 µM |  |  |  |  |  |  |  |  |  |  |  |  |
| Cc1cc(C)nc(NC(P(=O)(O)O)P(=O)(O)O)n1 | > 100 µM |  | > 100 µM |  | > 100 µM | > 100 µM | > 100 µM | > 100 µM | > 100 µM | > 100 µM |  |  |  |  |  |  |  |  |  |
| COc1ccc2nc(-c3ccccc3)c(=O)[nH]c2c1 |  | > 100 µM | > 100 µM |  | > 100 µM | > 100 µM |  | > 100 µM | > 100 µM | > 100 µM |  |  |  |  |  |  |  |  |  |
| CN1CCN(/C(N)=C(\C#N)C(=O)Nc2ccc(Cl)cc2)CC1 | > 100 µM | > 100 µM | > 100 µM |  | > 100 µM | > 100 µM | > 100 µM | > 100 µM | > 100 µM | > 100 µM |  |  |  |  |  |  |  |  |  |
| O=c1cc(CF)[nH]c(=S)[nH]1 |  | > 100 µM | > 100 µM | > 100 µM | > 100 µM | > 100 µM | > 100 µM | > 100 µM | > 100 µM | > 100 µM |  |  |  |  |  |  |  |  |  |
| CC1(C)O[C@H]2OC(CO)C(N=[N+]=[N-])[C@H]2O1 (stereo partly drawn) |  | > 100 µM | > 100 µM | > 100 µM | > 100 µM | > 100 µM | > 100 µM | > 100 µM | > 100 µM | > 100 µM |  |  |  |  |  |  |  |  |  |
| COCn1cnc2c(=O)nc(SC)n(-c3ccccc3)c21 | > 100 µM | > 100 µM | > 100 µM | > 100 µM |  | > 100 µM | > 100 µM | > 100 µM | > 100 µM | > 100 µM |  |  |  |  |  |  |  |  |  |
| C(=Nc1ccc2c(c1)Cc1ccccc1-2)c1ccccn1 |  | > 100 µM | > 100 µM | > 100 µM | > 100 µM | > 100 µM | > 100 µM | > 100 µM | > 100 µM | > 100 µM |  |  |  |  |  |  |  |  |  |
| CCOC(=O)C(Cc1ccc(O)cc1)Nc1nc(=O)c2c(=O)oc(Cl)cc2o1 (stereo not drawn) | 27.7 µM | 15.2 µM | 13.2 µM | 25.9 µM | 21.4 µM | 27.3 µM | 23.8 µM | 15.1 µM | 51.1 µM |  |  |  |  |  |  |  |  |  |  |
| COc1ccc2c(c1)c(-c1nc(-c3c[nH]c4ncccc34)cs1)cn2CCCCN1CCCCC1 | 3.18 µM |  |  |  | 2.93 µM |  | 2.77 µM |  | 3.22 µM |  | 1.75 µM |  |  |  | 1.52 µM |  | 1380 nM |  | 1.73 µM |
| O=C1OCC2OC(=O)c3cc(O)c(O)c(O)c3-c3c(O)c(O)c(O)c4c3C(=O)OC(C2OC(=O)c2cc(O)c(O)c(O)c2-c2c1cc(O)c(O)c2O)C1OC(=O)C2C4=C(O)C(=O)C23Oc2cc(O)c4c(c2[C@H]13)O[C@H](c1ccc(O)c(O)c1)[C@@H](O)C4 (stereo partly drawn) | > 100 µM | 53.5 µM | 42.7 µM | 43.5 µM | > 100 µM | > 100 µM | > 100 µM | 29.6 µM | > 100 µM |  |  |  |  |  |  |  |  |  |  |
| CS(=O)(=O)N1CC(CCl)c2ccc(O)cc21 (stereo not drawn) |  | 11.5 µM | 14.2 µM | 9.9 µM | 5.88 µM |  | 5.79 µM |  | 11.3 µM | 3.54 µM |  |  |  |  |  |  |  |  |  |
| NCCCN(CCCN)CCc1cn(C(=O)c2ccccc2)cn1 | 27.5 µM | 38.2 µM | 29.5 µM | 15.3 µM | 21.5 µM | 33.6 µM |  | 18.1 µM | 11.3 µM | 40.5 µM |  |  |  |  |  |  |  |  |  |
